Experimental findings from patent US10913736B2 (UNIVERSITY OF WASHINGTON, priority 2014, dated 2021) are described below.

SMILES strings stand for the structures. Where “and” joins values, the source holds several entries; their conditions need not be identical. Equal entries are not always repeated. Where two headings read alike, the source gives them in different places.

One test deals with MetRS (T. brucei) (Trypanosoma brucei brucei, UniProt Q38C91). Briefly: MetRS (T. brucei) ATP depletion assay using Kinase-Glo. Type of test: biochemical. (In general: Kinase-Glo measures the ATP left after a reaction by luminescence.)
Another test concerns T. cruzi. Briefly: T. cruzi growth inhibition EC50. In kind it is cell-based. The note with it: Trypanosoma cruzi; read-out: C) T. cruzi EC50.
In another test the test system is T. brucei. The test can be described thus: Growth inhibition assay of T. brucei cell cultures (Alamar Blue, 48 h). Type of test: cell-based. (In general: Alamar Blue is a resazurin reagent that responds to reducing activity.)
Another test has as its target MetRS (S. aureus) (Staphylococcus aureus, UniProt Q5HII6). The test can be described thus: biochemical. The conditions noted are these: ATP depletion, Kinase-Glo; read-out: H) MetRS (S. aureus) ATP depletion assay using Kinase-Glo with modified cpd dilution method, IC50.
The mark [1] stands for this setting: Trypanosoma brucei; read-out: B) T. brucei EC50.

Sequence of MetRS (T. brucei) (Q38C91 entry or part of it): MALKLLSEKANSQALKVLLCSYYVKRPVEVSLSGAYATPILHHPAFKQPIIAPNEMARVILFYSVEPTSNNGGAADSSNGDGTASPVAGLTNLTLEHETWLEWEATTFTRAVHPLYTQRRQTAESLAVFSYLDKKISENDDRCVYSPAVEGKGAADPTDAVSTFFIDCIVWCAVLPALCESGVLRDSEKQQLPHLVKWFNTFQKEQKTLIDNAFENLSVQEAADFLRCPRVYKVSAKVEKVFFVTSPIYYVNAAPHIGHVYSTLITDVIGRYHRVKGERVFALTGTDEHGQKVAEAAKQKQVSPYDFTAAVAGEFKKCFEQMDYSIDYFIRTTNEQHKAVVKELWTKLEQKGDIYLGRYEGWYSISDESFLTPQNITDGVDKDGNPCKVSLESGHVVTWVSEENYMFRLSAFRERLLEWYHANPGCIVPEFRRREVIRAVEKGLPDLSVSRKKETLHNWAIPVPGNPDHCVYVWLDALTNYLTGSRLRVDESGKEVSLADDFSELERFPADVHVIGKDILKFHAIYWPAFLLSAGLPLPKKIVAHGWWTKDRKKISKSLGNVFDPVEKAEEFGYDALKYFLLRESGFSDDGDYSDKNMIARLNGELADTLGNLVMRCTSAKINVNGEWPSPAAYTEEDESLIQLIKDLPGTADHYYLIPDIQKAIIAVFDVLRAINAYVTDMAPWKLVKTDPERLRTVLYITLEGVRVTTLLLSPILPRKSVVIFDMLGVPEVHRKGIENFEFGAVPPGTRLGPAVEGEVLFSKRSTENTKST
Sequence of MetRS (S. aureus) (Q5HII6 whole entry): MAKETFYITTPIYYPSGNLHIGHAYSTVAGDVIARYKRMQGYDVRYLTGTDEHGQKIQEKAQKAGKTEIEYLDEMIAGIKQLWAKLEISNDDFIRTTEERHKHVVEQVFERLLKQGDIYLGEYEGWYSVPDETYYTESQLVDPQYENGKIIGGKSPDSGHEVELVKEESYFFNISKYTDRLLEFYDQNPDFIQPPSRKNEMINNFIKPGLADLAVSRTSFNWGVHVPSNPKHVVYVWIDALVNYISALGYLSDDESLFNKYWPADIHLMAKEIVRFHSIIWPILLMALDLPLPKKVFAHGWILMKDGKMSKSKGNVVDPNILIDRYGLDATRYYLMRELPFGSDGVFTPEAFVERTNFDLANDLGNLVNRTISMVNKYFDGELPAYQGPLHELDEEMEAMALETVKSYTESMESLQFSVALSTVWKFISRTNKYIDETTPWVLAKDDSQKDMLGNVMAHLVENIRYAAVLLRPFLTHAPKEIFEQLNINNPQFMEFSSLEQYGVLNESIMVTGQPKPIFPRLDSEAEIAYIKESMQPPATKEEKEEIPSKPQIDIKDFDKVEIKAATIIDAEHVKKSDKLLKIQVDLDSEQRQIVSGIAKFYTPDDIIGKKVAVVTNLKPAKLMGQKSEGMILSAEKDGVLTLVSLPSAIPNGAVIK

For orientation: IC50 means the concentration that gives 50% inhibition. One may read the EC50 as the concentration at which the effect is half-maximal. In the case of `NN(C(=O)/C=C/Oc1ccc(Cl)cc1Cl)c1nc2ccccc2[nH]1` [Compound 1766, (2E)-N-(1H-1,3-benzodiazol-2-yl)-3-(2,4-dichlorophenoxy)prop-2-enehydrazide], at MetRS (T. brucei), the IC50 was 297 nM. The EC50 was > 5000 nM in the test on T. cruzi and 3530 nM with T. brucei (setting [1]).

In the case of `Clc1cc(Cl)cc(CNC2CCCC(c3nc4nc(Cl)ccc4[nH]3)C2)c1` (stereo not drawn) [Compound 1788, 3-(5-chloro-1H-imidazo[4,5-b]pyridin-2-yl)-N-(3,5-dichlorobenzyl)cyclohexanamine], 124 nM corresponded to half-maximal inhibition at MetRS (T. brucei) (IC50). The EC50 with T. cruzi was 4170 nM; in the test with T. brucei (setting [1]), 359 nM.

At MetRS (T. brucei), `CC(=O)N(Cc1cc(Cl)cc(Cl)c1)C1CCCC(c2nc3nc(Cl)ccc3[nH]2)C1` (stereo not drawn) [Compound 1789, N-(3-(5-chloro-1H-imidazo[4,5-b]pyridin-2-yl)cyclohexyl)-N-(3,5-dichlorobenzyl)acetamide] came in with an IC50 of 89 nM. The EC50 was 4990 nM in the test with T. cruzi and 2810 nM with T. brucei (setting [1]).

Regarding `CC(Cc1nc2ccc(Cl)cc2[nH]1)NCc1cc(Cl)cc(Cl)c1` (stereo not drawn) [Compound 1794, [1-(5-chloro-1H-1,3-benzodiazol-2-yl)propan-2-yl][(3,5-dichlorophenyl)methyl]amine], the IC50 was 22600 nM on MetRS (S. aureus); 31 nM and 17 nM and 72 nM and 70 nM against MetRS (T. brucei). For the same molecule, the EC50 with T. cruzi was 5230 nM; in the test with T. brucei (setting [1]), 1330 nM; in the test with T. brucei (read-out: B) T. brucei EC50) it was 1870 nM and 1840 nM.

For `C[C@@H](Cc1nc2ccc(Cl)cc2[nH]1)NCc1cc(Cl)cc(Cl)c1` [Compound 1805, [(2S)-1-(6-chloro-1H-1,3-benzodiazol-2-yl)propan-2-yl][(3,5-dichlorophenyl)methyl]amine], the IC50 was > 1000 nM at MetRS (S. aureus); 56 nM and 27 nM at MetRS (T. brucei). For the same molecule, the EC50 was 5610 nM in the test on T. cruzi and 1690 nM in the test on T. brucei (setting [1]).

`Clc1ccc(CNC2CCCC(c3nc4nc(Cl)ccc4[nH]3)C2)c(Cl)c1` (stereo not drawn) [Compound 1809, 3-(5-chloro-1H-imidazo[4,5-b]pyridin-2-yl)-N-(2,4-dichlorobenzyl) cyclohexanamine] came in with an IC50 against MetRS (T. brucei) of 43 nM. Also, the EC50 with T. cruzi amounted to 3460 nM; in the test with T. brucei (setting [1]), 821 nM.

In the case of `Clc1cc(Cl)cc(CNC2CCCN(c3nc4nc(Cl)ccc4[nH]3)C2)c1` (stereo not drawn) [Compound 1811, 1-(5-chloro-1H-imidazo[4,5-b]pyridin-2-yl)-N-(3,5-dichlorobenzyl) piperidin-3-amine], the results for the IC50 on MetRS (S. aureus) and on MetRS (T. brucei) were 709 nM and 8 nM, respectively. For the same molecule, the EC50 with T. cruzi was 2510 nM; in the test on T. brucei (setting [1]), 81.8 nM.

`Clc1cc(Cl)cc(CNCCNc2nc3ccc(Cl)cc3[nH]2)c1` [Compound 1829, {2-[(6-chloro-1H-1,3-benzodiazol-2-yl)amino]ethyl}[(3,5-dichlorophenyl)methyl]amine] gave a half-inhibitory concentration (IC50) against MetRS (T. brucei) of 85 nM. Also, the EC50 with T. cruzi worked out at 3040 nM; in the test with T. brucei (setting [1]), 539 nM.

On MetRS (T. brucei), `CC(=O)N(CCCc1nc2nc(F)ccc2[nH]1)Cc1cc(Cl)cc(Cl)c1` [Compound 1835, N-(3,5-dichlorobenzyl)-N-(3-(5-fluoro-1H-imidazo[4,5-b]pyridin-2-yl)propyl)acetamide] returned an IC50 of 23 nM. The EC50 is > 20000 nM in the test on T. cruzi and 873 nM with T. brucei (setting [1]).

Molecule `Clc1cc(Cl)cc(CNCCc2nc3ncc(Cl)cc3[nH]2)c1` [Compound 1844, (2-{6-chloro-3H-imidazo[4,5-b]pyridin-2-yl}ethyl)[(3,5-dichlorophenyl)methyl]amine] registered an IC50 against MetRS (T. brucei) of 60 nM. Further, the figures for the EC50 with T. cruzi and in the test on T. brucei (setting [1]) were 5420 nM and 598 nM, respectively.

Consider `Clc1cc(Cl)cc(CNCCNc2nc3ccc(Cl)nc3[nH]2)c1` [Compound 1849, [2-({5-chloro-3H-imidazo[4,5-b]pyridin-2-yl}amino)ethyl][(3,5-dichlorophenyl)methyl]amine], for which the IC50 was 3110 nM on MetRS (S. aureus) and 33 nM at MetRS (T. brucei). Further, the results for the EC50 in the test with T. cruzi and in the test on T. brucei (setting [1]) were 1810 nM and 60.7 nM, respectively.

For `Clc1cc(Cl)cc(NCC2CCCN(c3nc4nc(Cl)ccc4[nH]3)C2)c1` (stereo not drawn) [Compound 1862, 3,5-dichloro-N-((1-(5-chloro-1H-imidazo[4,5-b]pyridin-2-yl)piperidin-3-yl)methyl)aniline], the IC50 at MetRS (S. aureus) worked out at 754 nM; at MetRS (T. brucei), 31 nM. In addition, the half-maximal effective concentration (EC50) was found to be 4920 nM in the test with T. cruzi and 343 nM with T. brucei (setting [1]).

As to `Clc1ccc2[nH]c([C@H]3CCCN(Cc4ccc(Cl)c(Cl)c4)C3)nc2n1` [Compound 1870, (S)-5-chloro-2-(1-(3,4-dichlorobenzyl)piperidin-3-yl)-1H-imidazo[4,5-b]pyridine], the IC50 on MetRS (S. aureus) was found to be 837 nM; against MetRS (T. brucei), 54 nM. Besides, the figures for the EC50 in the test with T. cruzi and in the test with T. brucei (setting [1]) were 2610 nM and 458 nM, respectively.

With `O=C(Cc1cc(Cl)cc(Cl)c1)NCc1nc2ccc(Cl)nc2[nH]1` [Compound 1875, N-({5-chloro-3H-imidazo[4,5-b]pyridin-2-yl}methyl)-2-(3,5-dichlorophenyl)acetamide], the IC50 against MetRS (T. brucei) amounted to 38 nM. Moreover, the EC50 amounted to 13100 nM in the test with T. cruzi and 1900 nM in the test with T. brucei (setting [1]).

Consider `Clc1cc(Cl)cc(CNCCCc2nc3ccc(Cl)nc3[nH]2)c1` [Compound 1881, (3-{5-chloro-3H-imidazo[4,5-b]pyridin-2-yl}propyl)[(3,5-dichlorophenyl)methyl]amine], for which the IC50 on MetRS (T. brucei) came out at 35 nM. Also, the results for the 50% effective concentration (EC50) in the test with T. cruzi and in the test on T. brucei (setting [1]) were 5870 nM and 307 nM, respectively.

In the case of `COc1ccc(Oc2nc(NCc3nc4ccc(F)nc4[nH]3)nc(NCc3nc4ccc(F)nc4[nH]3)n2)c(Cl)c1` [Compound 1883, 6-(2-chloro-4-methoxyphenoxy)-2-N,4-N-bis({5-fluoro-3H-imidazo[4,5-b]pyridin-2-yl}methyl)-1,3,5-triazine-2,4-diamine], the IC50 at MetRS (S. aureus) was found to be 333 nM; on MetRS (T. brucei), 39 nM. In addition, the results for the EC50 in the test on T. cruzi, in the test with T. brucei (setting [1]) and with T. brucei (read-out: B) T. brucei EC50) were 17400 nM, 5620 nM and 3670 nM, respectively.

For `COc1ccc(Oc2nc(NCc3nc4ccc(F)nc4[nH]3)nc(Oc3ccc(OC)cc3Cl)n2)c(Cl)c1` [Compound 1884, 4,6-bis(2-chloro-4-methoxyphenoxy)-N-({5-fluoro-3H-imidazo[4,5-b]pyridin-2-yl}methyl)-1,3,5-triazin-2-amine], the figures for the IC50 at MetRS (S. aureus) and against MetRS (T. brucei) were 122 nM and 24 nM, respectively. The EC50 in the test with T. cruzi is 773 nM; in the test with T. brucei (setting [1]), 55.9 nM.

Regarding `Fc1ccc2[nH]c(N3CCCC(NCc4cc(Cl)cc(Cl)c4)C3)nc2n1` (stereo not drawn) [Compound 1886, N-(3,5-dichlorobenzyl)-1-(5-fluoro-1H-imidazo[4,5-b]pyridin-2-yl) piperidin-3-amine], the IC50 on MetRS (S. aureus) is 505 nM; against MetRS (T. brucei), 14 nM. Moreover, the EC50 in the test on T. cruzi is 5160 nM; in the test with T. brucei (setting [1]) it was 299 nM.

For `Clc1cc(Cl)c2c(c1)C(N[C@H]1CCCN(c3nc4nc(Cl)ccc4[nH]3)C1)CCN2` (stereo partly drawn) [Compound 1899, 6,8-dichloro-N—((S)-1-(5-chloro-1H-imidazo[4,5-b]pyridin-2-yl)piperidin-3-yl)-1,2,3,4-tetrahydroquinolin-4-amine], the IC50 on MetRS (S. aureus) was found to be 323 nM; on MetRS (T. brucei), 89 nM. Also, the EC50 with T. cruzi was 260 nM.

As for `Fc1ccc2[nH]c(N3CCC[C@H](NCc4cc(Cl)cc(Cl)c4)C3)nc2n1` [Compound 1900, (S)—N-(3,5-dichlorobenzyl)-1-(5-fluoro-1H-imidazo[4,5-b]pyridin-2-yl)piperidin-3-amine], the figures for the half-inhibitory concentration (IC50) on MetRS (S. aureus) and against MetRS (T. brucei) were 303 nM and 27 nM, respectively. For the same molecule, the figures for the concentration giving a half-maximal response (EC50) in the test on T. cruzi, with T. brucei (setting [1]) and with T. brucei (read-out: B) T. brucei EC50) were 2240 nM, 128 nM and > 200 nM, respectively.

With `CCOc1c(Br)cc(Br)cc1CN[C@H]1CCCN(c2nc3nc(Cl)ccc3[nH]2)C1` [Compound 1910, (S)-1-(5-chloro-1H-imidazo[4,5-b]pyridin-2-yl)-N-(3,5-dibromo-2-ethoxybenzyl)piperidin-3-amine], the IC50 on MetRS (S. aureus) amounted to 22 nM; against MetRS (T. brucei) it was 19 nM. Besides, the EC50 in the test with T. cruzi is 934 nM; in the test with T. brucei (setting [1]), 39.5 nM.

On to `CC(=O)N(CCN(C)c1nc2ccc(Cl)nc2[nH]1)Cc1cc(Cl)cc(Cl)c1` [Compound 1926, N-(3,5-dichlorobenzyl)-N-(2-(5-chloro-N-methyl-1H-imidazo[4,5-b]pyridin-2-ylamino)ethyl)acetamide], for which the concentration for half-maximal inhibition (IC50) at MetRS (S. aureus) turned out to be 172 nM; at MetRS (T. brucei), 20 nM. The EC50 turned out to be 1330 nM in the test on T. cruzi and 75.5 nM with T. brucei (setting [1]).

With `CC(=O)N(CCN(C)c1nc2nc(Cl)ccc2[nH]1)[C@@H]1CCNc2c(Cl)cc(Cl)cc21` [Compound 1938, N-[2-({5-chloro-3H-imidazo[4,5-b]pyridin-2-yl}(methyl)amino)ethyl]-N-[(4R)-6,8-dichloro-1,2,3,4-tetrahydroquinolin-4-yl]acetamide], the IC50 on MetRS (S. aureus) came to 1260 nM; at MetRS (T. brucei), 36 nM. In the test with T. cruzi, the EC50 is 266 nM.

Turning to `CN(CCN(CCN(C)c1nc2nc(F)ccc2[nH]1)[C@@H]1CCNc2c(Cl)cc(Cl)cc21)c1nc2nc(F)ccc2[nH]1` [Compound 1939, (R)—N1-(6,8-dichloro-1,2,3,4-tetrahydroquinolin-4-yl)-N2-(5-fluoro-1H-imidazo[4,5-b]pyridin-2-yl)-N1-(2-((5-fluoro-1H-imidazo[4,5-b]pyridin-2-yl)(methyl)amino)ethyl)-N2-methylethane-1,2-diamine], the IC50 on MetRS (S. aureus) amounted to 271 nM; on MetRS (T. brucei) it was 73 nM. The EC50 in the test on T. cruzi worked out at 176 nM.

`N#Cc1cc(Cl)cc(CN[C@H]2CCCN(c3nc4nc(Cl)ccc4[nH]3)C2)c1` [Compound 1992, (S)-3-chloro-5-(((1-(5-chloro-1H-imidazo[4,5-b]pyridin-2-yl)piperidin-3-yl)amino)methyl)benzonitrile]: at MetRS (T. brucei), half-maximal inhibition (IC50) was put at 14 nM. Besides, the concentration for a half-maximal effect (EC50) was 2130 nM with T. cruzi and 111 nM in the test on T. brucei (setting [1]).
